Assay results as given in patent US8133849B2, “Herbicidal compounds” (Syngenta Limited, priority 2007, dated 2012).

How the values were obtained:
Format in all cases: in vivo
Stellaria media = assay: Example B1 herbicidal action, post-emergence, seed trays in climatic chamber, damage score 0-10; conditions: 1000 g/ha, evaluated after 9 days, 10=total damage to plant, 0=no damage to plant
Method: (§1) Seeds of a variety of test species were sown in sterilized standard soil in seed trays each having 96 cells. After cultivation for 8 to 9 days cultivation (post-emergence) under controlled conditions in a climatic chamber (cultivation at 23/17° C., day/night; 13 hours light; 50-60% humidity), the plants were treated with an aqueous spray solution of 1000 mg/l of the active ingredient dissolved in 10% DMSO (dimethyl sulfoxide, CAS RN 67-68-5) as a solvent, equivalent to 1000 g/ha. The plants were grown in the climatic chamber after application at (24/19° C., day/night; 13 hours light; 50-60% humidity) and watered twice daily. After 9 days until the test was evaluated (10=total damage to plant, 0=no damage to plant)

Amaranthus retroflexus [1] = assay: as above; conditions: 1000 g/ha, evaluated after 9 days, 10=total damage to plant, 0=no damage to plant
Method: as §1

Nasturtium officinale = assay: as above; conditions: 1000 g/ha, evaluated after 9 days, 10=total damage to plant, 0=no damage to plant
Method: as §1

Solanum nigrum [2] = assay: as above; conditions: 1000 g/ha, evaluated after 9 days, 10=total damage to plant, 0=no damage to plant
Method: as §1

Echinochloa crus-galli = assay: Example B2 herbicidal action, post-emergence, pots in glasshouse, damage score 0-10; conditions: application post-emergence, rate 1000 g/ha, evaluated after 13 days
How it was run: (§2)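 Damage was assessed 13 days after a post-emergence spray given to 8-day-old pot seedlings. The spray was an aqueous solution from an acetone/water (50:50) formulation with 0.5% Tween 20. Plants grew in a glasshouse at 24/16° C, 14 h light, 65% humidity, watered twice daily.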

Amaranthus retroflexus [3] = assay: as above; conditions: application post-emergence, rate 1000 g/ha, evaluated after 13 days
How it was run: as §2

Solanum nigrum [4] = assay: as above; conditions: application post-emergence, rate 1000 g/ha, evaluated after 13 days
How it was run: as §2

Ipomea hederaceae = assay: as above; conditions: application post-emergence, rate 1000 g/ha, evaluated after 13 days
How it was run: as §2

Setaria faberi = assay: as above; conditions: application post-emergence, rate 1000 g/ha, evaluated after 13 days
How it was run: as §2

| Structure (SMILES) | damage to plant, STEME (Stellaria media) | damage to plant, AMARE (Amaranthus retroflexus [1]) | damage to plant, NAAOF (Nasturtium officinale) | damage to plant, SOLNI (Solanum nigrum [2]) | ECHCG damage score (10=total damage to plant; 0=no damage to plant) (Echinochloa crus-galli) | AMARE damage score (10=total damage to plant; 0=no damage to plant) (Amaranthus retroflexus [3]) | SOLNI damage score (10=total damage to plant; 0=no damage to plant) (Solanum nigrum [4]) | IPOHE damage score (10=total damage to plant; 0=no damage to plant) (Ipomea hederaceae) | SETFA damage score (10=total damage to plant; 0=no damage to plant) (Setaria faberi) |
| --- | --- | --- | --- | --- | --- | --- | --- | --- | --- |
| CC(C)(C)C(=O)OC1=C(c2ccc(Cl)cc2Cl)S(=O)(=O)Nc2nccnc21 [Compound B1] | 0 | 0 | 0 | 2 |  |  |  |  |  |
| CC(C)(C)C(=O)OC1=C(c2c(F)ccc(F)c2Cl)S(=O)(=O)Nc2nccnc21 [Compound B3, 2,2-dimethyl-propionic acid-3-(2-chloro-3,6-difluoro-phenyl)-2,2-dioxo-1,2-dihydro-2-λ-6-thia-1,5,8-triaza-naphthalen-4-yl ester] | 0 | 0 | 0 | 2 |  |  |  |  |  |
| CN1c2nccnc2C(OC(=O)C2CC2)=C(c2ccc(Cl)cc2Cl)S1(=O)=O [Compound C1] | 6 | 0 | 4 | 3 |  |  |  |  |  |
| CCN1c2nccnc2C(O)=C(c2cccc(C(F)(F)F)c2Cl)S1(=O)=O [Compound D38] |  |  |  |  | 1 | 9 | 8 | 5 | 0 |
| O=S1(=O)C(c2c(F)cccc2C(F)(F)F)=C(O)c2nccnc2N1CC(F)F [Compound D39] |  |  |  |  | 9 | 10 | 9 | 10 | 9 |
| Cc1ccc(C(F)(F)F)c(C2=C(O)c3nccnc3N(CC(F)F)S2(=O)=O)c1 [Compound D41] |  |  |  |  | 1 | 9 | 10 | 9 | 2 |
| O=S1(=O)C(c2c(C(F)(F)F)cccc2C(F)(F)F)=C(O)c2nccnc2N1CC(F)F [Compound D42] |  |  |  |  | 4 | 7 | 8 | 9 | 7 |
| CCN1c2nccnc2C(O)=C(c2c(C(F)(F)F)cccc2C(F)(F)F)S1(=O)=O [Compound D43] |  |  |  |  | 3 | 7 | 8 | 8 | 4 |
| O=S1(=O)C(c2ccccc2I)=C(O)c2nccnc2N1CC(F)F [Compound D44] |  |  |  |  | 9 | 10 | 10 | 10 | 6 |
| C#CCN1c2nccnc2C(O)=C(c2c(Cl)ccc(Cl)c2C(F)(F)F)S1(=O)=O [Compound D45] |  |  |  |  | 6 | 8 | 9 | 8 | 6 |
| CN1c2nccnc2C(O)=C(c2c(Cl)ccc(Cl)c2Cl)S1(=O)=O [Compound D47] |  |  |  |  | 4 | 8 | 10 | 8 | 1 |
| CC#CCN1c2nccnc2C(O)=C(c2c(Cl)ccc(Cl)c2C(F)(F)F)S1(=O)=O [Compound D48] |  |  |  |  | 0 | 3 | 8 | 7 | 0 |
| CCN1c2nccnc2C(O)=C(c2cccc(Cl)c2Cl)S1(=O)=O [Compound D49] |  |  |  |  | 1 | 4 | 8 | 6 | 1 |
| O=S1(=O)C(c2cccc(Cl)c2Cl)=C(O)c2nccnc2N1CC(F)F [Compound D50] |  |  |  |  | 1 | 5 | 10 | 8 | 2 |
| O=S1(=O)C(c2ccc(Cl)cc2Cl)=C(O)c2nccnc2N1CC(F)(F)F [Compound D51] |  |  |  |  | 2 | 7 | 8 | 7 | 1 |
| CCN1c2nccnc2C(O)=C(c2cc(Cl)ccc2C(F)(F)F)S1(=O)=O [Compound D52] |  |  |  |  | 4 | 5 | 7 | 5 | 4 |
| O=S1(=O)C(c2cc(Cl)ccc2C(F)(F)F)=C(O)c2nccnc2N1CC(F)F [Compound D53] |  |  |  |  | 6 | 8 | 10 | 7 | 6 |
| C=CCN1c2nccnc2C(O)=C(c2cc(Cl)ccc2C(F)(F)F)S1(=O)=O [Compound D54] |  |  |  |  | 3 | 2 | 7 | 4 | 3 |
| O=S1(=O)C(c2ccc(C(F)(F)F)cc2C(F)(F)F)=C(O)c2nccnc2N1CC(F)F [Compound D55] |  |  |  |  | 5 | 10 | 10 | 10 | 4 |
| O=S1(=O)C(c2ccc(Br)cc2C(F)(F)F)=C(O)c2nccnc2N1CC(F)F [Compound D56] |  |  |  |  | 7 | 10 | 9 | 10 | 6 |
| O=S1(=O)C(c2c(C(F)(F)F)ccc(Cl)c2Cl)=C(O)c2nccnc2N1CC(F)F [Compound D57] |  |  |  |  | 9 | 10 | 10 | 7 | 10 |
| O=S1(=O)C(c2ccc(I)cc2Cl)=C(O)c2nccnc2N1CC(F)F [Compound D59] |  |  |  |  | 3 | 4 | 8 | 4 | 1 |
| COc1ccc(Cl)c(C2=C(O)c3nccnc3N(CC(F)F)S2(=O)=O)c1F [Compound D60] |  |  |  |  | 4 | 1 | 7 | 8 | 2 |
| O=S1(=O)C(c2cc(C(F)(F)F)ccc2Cl)=C(O)c2c(ncc[n+]2[O-])N1CC(F)F [Compound E1, 3-(2-chloro-5-trifluoromethyl-phenyl)-1-(2,2-difluoro-ethyl)-2,2-dioxo-5-oxy-1,2-dihydro-2-λ-6-thia-1,5,8-triaza-naphthalen-4-ol] |  |  |  |  | 3 | 4 | 9 | 7 | 1 |
| O=S1(=O)C(c2c(Cl)cccc2C(F)(F)F)=C(O)c2c(ncc[n+]2[O-])N1CC(F)F [Compound E2] |  |  |  |  | 6 | 8 | 9 | 8 | 8 |
